Results from patent publication US20220370440A1 (Lead Discovery Center GmbH, priority 2018, published 2022).
pIC50: −log10 of the molar value.

Experiments:
A431 = A431 CellTiter-Glo; type: cell-based; conditions: Homo sapiens, A-431; 72 h compound incubation; read-out: A431 CTG IC50
Summary of the method: (§1)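 Antiproliferative IC50 values come from a 72 h treatment of cultured cells, measured by CellTiter-Glo ATP luminescence. Only runs with a Z′-factor of at least 0.5, calculated from 16 vehicle and 16 Staurosporine (10 μM) control wells, are reported.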

[1] = Metabolic stability in mouse liver microsomes without cofactor NADPH; type: in vitro ADME; conditions: 3 μM test compound, mouse liver microsomes, without NADPH, 50 min, 37° C., LC-MS/MS
Summary of the method: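 Test compound (3 μM) was incubated with mouse liver microsomes without NADPH at 37° C. Depletion was followed by LC-MS/MS over time up to 50 min.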

[2] = biological target: Her2 Exon 20 INSYVMA Ba/F3 (Homo sapiens, UniProt P04626, DUP772-775, cells depend on it); assay: Her2 Exon 20 INSYVMA Ba/F3 CellTiter-Glo; type: cell-based; conditions: CellTiter-Glo, 72 h, read-out: Her2 Exon 20 INSYVMA Ba/F3 CTG IC50
Summary of the method: (§2)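 Using a 72 h viability readout, compound-treated Ba/F3 cells (pre-incubated 24 h after seeding) were lysed with CellTiter-Glo reagent and luminescence recorded. Potency was expressed as IC50 from a fitted dose–response curve.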

[3] = biological target: EGFR Exon 20 INSNPH Ba/F3 (Homo sapiens, UniProt P00533, DUP771-773, cells depend on it); assay: EGFR Exon 20 INSNPH Ba/F3 CellTiter-Glo; type: cell-based; conditions: CellTiter-Glo, 72 h, read-out: EGFR Exon 20 INSNPH Ba/F3 CTG IC50
EGFR Exon 20 INSNPH Ba/F3, sequence (P00533 with tags, fused parts or gaps DUP771-773): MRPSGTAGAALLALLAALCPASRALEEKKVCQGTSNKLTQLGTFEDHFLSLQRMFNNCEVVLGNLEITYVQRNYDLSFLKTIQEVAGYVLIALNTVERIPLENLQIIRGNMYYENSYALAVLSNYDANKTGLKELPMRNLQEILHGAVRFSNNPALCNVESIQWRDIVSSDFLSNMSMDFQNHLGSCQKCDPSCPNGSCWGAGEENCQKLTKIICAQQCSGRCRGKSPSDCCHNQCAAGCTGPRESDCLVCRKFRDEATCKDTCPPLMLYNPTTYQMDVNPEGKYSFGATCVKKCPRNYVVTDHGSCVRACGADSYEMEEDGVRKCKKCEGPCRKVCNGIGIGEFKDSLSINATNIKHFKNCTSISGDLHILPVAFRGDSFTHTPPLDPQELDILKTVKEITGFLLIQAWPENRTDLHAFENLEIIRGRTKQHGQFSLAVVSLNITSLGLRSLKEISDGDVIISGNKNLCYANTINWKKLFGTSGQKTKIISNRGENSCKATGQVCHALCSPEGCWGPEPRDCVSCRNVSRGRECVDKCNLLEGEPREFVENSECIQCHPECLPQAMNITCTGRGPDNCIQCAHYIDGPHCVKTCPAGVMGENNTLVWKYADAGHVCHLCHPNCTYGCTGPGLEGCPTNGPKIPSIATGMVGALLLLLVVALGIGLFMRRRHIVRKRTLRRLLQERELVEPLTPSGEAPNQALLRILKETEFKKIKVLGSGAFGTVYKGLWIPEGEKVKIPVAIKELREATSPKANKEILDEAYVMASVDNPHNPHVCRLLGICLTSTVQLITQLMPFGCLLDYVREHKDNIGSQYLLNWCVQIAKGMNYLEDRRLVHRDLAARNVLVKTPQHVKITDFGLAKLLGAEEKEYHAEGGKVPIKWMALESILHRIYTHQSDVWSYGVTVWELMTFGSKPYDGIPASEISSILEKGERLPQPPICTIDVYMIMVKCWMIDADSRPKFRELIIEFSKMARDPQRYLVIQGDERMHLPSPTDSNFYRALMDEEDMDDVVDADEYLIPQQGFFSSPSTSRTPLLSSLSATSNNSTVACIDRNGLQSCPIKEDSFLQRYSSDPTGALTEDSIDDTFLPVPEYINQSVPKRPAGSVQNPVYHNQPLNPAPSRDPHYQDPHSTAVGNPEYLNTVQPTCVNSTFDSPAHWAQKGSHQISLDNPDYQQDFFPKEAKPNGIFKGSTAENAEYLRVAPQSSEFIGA
Summary of the method: as §2

H1975 = H1975 CellTiter-Glo; type: cell-based; conditions: Homo sapiens, NCI-H1975; 72 h compound incubation; read-out: H1975 CTG IC50
Summary of the method: as §1

EGFR T790ML858R = EGFR T790ML858R (Homo sapiens, UniProt P00533, L858R/T790M); assay: EGFR T790ML858R Lance assay; type: biochemical
EGFR T790ML858R, sequence (P00533 25-1210 T790M/L858R): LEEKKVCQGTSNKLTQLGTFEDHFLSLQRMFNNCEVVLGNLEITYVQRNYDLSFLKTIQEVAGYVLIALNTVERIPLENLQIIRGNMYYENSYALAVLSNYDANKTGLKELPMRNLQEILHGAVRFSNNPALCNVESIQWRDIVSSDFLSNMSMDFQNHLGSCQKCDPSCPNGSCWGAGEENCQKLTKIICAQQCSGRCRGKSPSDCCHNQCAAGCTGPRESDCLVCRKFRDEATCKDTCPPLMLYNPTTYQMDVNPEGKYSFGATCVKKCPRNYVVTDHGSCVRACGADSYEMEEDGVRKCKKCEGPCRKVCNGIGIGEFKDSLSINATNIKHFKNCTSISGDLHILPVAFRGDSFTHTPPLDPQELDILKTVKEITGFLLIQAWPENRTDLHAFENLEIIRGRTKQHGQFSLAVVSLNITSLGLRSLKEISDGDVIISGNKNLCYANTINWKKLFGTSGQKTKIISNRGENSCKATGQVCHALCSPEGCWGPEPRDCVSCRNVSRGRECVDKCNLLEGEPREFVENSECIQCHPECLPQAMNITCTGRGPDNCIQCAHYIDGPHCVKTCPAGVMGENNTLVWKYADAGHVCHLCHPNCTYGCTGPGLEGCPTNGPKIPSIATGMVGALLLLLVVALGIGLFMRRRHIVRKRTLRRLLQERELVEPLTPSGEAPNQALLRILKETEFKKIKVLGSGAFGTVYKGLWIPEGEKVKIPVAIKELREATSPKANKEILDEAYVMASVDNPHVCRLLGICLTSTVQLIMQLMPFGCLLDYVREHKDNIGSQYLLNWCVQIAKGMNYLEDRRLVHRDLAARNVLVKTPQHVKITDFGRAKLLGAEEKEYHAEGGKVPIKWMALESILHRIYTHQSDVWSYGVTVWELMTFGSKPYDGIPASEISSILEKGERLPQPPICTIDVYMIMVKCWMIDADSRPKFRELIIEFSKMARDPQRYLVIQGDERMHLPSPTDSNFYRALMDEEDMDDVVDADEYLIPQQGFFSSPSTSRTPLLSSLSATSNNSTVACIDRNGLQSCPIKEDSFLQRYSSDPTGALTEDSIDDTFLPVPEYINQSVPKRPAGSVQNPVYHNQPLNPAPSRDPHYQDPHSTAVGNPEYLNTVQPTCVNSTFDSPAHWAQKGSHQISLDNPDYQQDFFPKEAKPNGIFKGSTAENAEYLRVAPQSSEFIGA
Description: (§3) Inhibition is indicated as […] [nM] (“−”=not measured). Compounds having an activity designated as “A” provided an IC50≤100 nM; compounds having an activity designated as “B” provided an 100 nM<IC50≤500 nM; compounds having an activity designated as “C” provided an 500 nM<IC50≤1000 nM; compounds having an activity designated as “D” provided an 1000 nM<IC50≤100000 nM; and compounds having an activity designated as “E” provided an IC50>10000 nM.

EGFR wt = EGFR wt (Homo sapiens, UniProt P00533); assay: EGFR wt Lance assay; type: biochemical
EGFR wt, sequence (P00533 25-1210): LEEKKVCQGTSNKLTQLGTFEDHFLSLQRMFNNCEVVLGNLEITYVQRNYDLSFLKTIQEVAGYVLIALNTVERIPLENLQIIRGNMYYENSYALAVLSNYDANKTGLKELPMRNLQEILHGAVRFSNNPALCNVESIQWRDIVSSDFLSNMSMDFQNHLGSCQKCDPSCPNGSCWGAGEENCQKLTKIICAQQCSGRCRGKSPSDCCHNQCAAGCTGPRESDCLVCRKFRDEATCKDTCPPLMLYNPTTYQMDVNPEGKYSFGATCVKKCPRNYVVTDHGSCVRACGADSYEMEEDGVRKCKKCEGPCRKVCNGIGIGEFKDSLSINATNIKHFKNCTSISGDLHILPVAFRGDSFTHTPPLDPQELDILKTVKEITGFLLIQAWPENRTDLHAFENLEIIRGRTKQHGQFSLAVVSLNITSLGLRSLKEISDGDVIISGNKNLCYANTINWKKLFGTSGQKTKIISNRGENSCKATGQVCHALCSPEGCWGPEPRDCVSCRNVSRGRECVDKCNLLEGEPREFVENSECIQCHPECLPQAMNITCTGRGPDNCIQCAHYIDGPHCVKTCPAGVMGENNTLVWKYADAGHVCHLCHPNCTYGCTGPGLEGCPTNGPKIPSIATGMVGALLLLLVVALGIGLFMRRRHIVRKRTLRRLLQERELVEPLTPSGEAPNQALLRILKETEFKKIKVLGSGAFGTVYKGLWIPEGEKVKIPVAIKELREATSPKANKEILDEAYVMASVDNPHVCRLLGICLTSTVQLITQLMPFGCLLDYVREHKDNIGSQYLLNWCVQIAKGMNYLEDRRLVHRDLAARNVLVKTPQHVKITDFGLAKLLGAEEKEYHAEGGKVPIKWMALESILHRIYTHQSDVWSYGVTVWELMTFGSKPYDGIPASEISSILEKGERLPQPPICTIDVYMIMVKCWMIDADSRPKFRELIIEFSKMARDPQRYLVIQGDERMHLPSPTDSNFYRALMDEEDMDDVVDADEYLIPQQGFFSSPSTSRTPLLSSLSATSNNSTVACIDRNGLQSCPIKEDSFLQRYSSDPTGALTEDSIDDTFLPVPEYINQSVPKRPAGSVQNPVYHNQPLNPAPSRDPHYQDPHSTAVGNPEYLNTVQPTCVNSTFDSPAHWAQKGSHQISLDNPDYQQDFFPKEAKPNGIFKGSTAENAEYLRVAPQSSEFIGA
Description: as §3

HER2 INS YVMA = biological target: T1, HER2 INS YVMA (Homo sapiens, UniProt P04626, INS775YVMA); assay: Lance Kinase Activity Assay, HER2 INS YVMA (Her2 Exon 20 INSYVMA Lance); type: biochemical; conditions: biochemical Lance assay
T1 construct: purchased DPF
T1 sequence (P04626 with tags, fused parts or gaps INS775YVMA): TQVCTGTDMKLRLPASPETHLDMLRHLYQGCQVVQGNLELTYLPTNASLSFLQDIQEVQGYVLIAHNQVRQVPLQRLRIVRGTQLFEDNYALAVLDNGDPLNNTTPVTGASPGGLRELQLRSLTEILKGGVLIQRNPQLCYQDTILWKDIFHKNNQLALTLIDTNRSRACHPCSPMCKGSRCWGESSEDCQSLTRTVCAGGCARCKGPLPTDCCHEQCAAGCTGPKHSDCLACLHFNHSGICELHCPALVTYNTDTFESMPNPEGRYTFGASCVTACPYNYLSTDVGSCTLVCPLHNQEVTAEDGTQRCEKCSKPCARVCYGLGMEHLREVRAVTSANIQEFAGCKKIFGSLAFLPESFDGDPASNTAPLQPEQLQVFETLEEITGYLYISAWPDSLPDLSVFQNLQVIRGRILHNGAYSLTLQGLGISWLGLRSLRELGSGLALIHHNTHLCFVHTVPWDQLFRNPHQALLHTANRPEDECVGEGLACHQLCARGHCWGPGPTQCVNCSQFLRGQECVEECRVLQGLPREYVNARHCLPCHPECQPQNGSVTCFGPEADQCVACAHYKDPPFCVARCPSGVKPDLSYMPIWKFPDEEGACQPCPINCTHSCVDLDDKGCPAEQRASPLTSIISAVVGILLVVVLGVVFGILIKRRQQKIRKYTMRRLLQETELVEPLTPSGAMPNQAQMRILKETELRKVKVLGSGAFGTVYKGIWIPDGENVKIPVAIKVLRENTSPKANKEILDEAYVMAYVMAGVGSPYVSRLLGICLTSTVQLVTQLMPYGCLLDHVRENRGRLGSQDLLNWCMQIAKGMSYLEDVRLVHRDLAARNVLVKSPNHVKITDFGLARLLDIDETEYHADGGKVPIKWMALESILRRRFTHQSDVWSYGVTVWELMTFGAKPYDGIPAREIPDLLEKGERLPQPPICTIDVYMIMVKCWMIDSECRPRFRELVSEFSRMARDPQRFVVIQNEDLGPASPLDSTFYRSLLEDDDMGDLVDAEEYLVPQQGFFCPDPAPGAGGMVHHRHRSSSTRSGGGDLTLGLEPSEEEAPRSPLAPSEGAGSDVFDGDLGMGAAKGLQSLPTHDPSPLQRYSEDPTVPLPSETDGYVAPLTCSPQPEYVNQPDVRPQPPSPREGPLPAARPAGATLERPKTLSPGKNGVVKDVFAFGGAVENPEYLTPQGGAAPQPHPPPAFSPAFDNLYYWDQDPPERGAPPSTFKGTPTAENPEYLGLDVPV
Summary of the method: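 Kinase phosphorylates a ULight-labelled peptide substrate; Eu anti-phospho antibody gives TR-FRET (ex 340 nm, em 665/615 nm). Compounds in 1:3 serial dilution over 8 steps, reaction started with ATP, 1 h at room temperature, stopped with EDTA-containing detection mix for 1 h. IC50 from sigmoidal dose-response curves.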

| Compound | pIC50 (A431) | Stability in presence of mouse liver microsomes without cofactor NADPH [% remaining after 50 min] [1] [% remaining after 50 min] | GI50 [2] [µM] | GI50 [3] [µM] | pIC50 (H1975) | pIC50 (EGFR T790ML858R) | pIC50 (EGFR wt) | pIC50 (HER2 INS YVMA) |
| --- | --- | --- | --- | --- | --- | --- | --- | --- |
| C=CC(=O)N1CCc2ccc(-c3c(-c4ccc(OCCN5CCCC5)cc4)[nH]c4nccc(OC)c34)cc21 [Example 112, 1-(6-(4-methoxy-2-(4-(2-(pyrrolidin-1-yl)ethoxy)phenyl)-1H-pyrrolo[2,3-b]pyridin-3-yl)indolin-1-yl)prop-2-en-1-one] | 4.00 to 6.00 | 79 | 0.5 to 1 | 0.5 to 1 | 6.30 to 7.00 | ≥ 7.00 | ≥ 7.00 | ≥ 7.00 |
| C=CC(=O)Nc1cc(-c2c(-c3ccc(N4CCN(C)CC4)cc3)[nH]c3ncc(C(=O)OC)cc23)ccc1C [Example 134, Methyl 3-(3-acrylamido-4-methylphenyl)-2-(4-(4-methylpiperazin-1-yl)phenyl)-1H-pyrrolo[2,3-b]pyridine-5-carboxylate 2,2,2-trifluoroacetate] | 4.00 to 6.00 | >99 | 0.1 to 0.5 | 0.1 to 0.5 | 6.30 to 7.00 | ≥ 7.00 | ≥ 7.00 | ≥ 7.00 |
| C=CC(=O)Nc1cc(-c2c(-c3ccc(N(C)CCN(C)C)cc3)[nH]c3ncc(C(=O)OC(C)C)cc23)ccc1C [Example 154, isopropyl 3-(3-acrylamido-4-methylphenyl)-2-(4-((2-(dimethylamino)ethyl)(methyl)amino)phenyl)-1H-pyrrolo[2,3-b]pyridine-5-carboxylate 2,2,2-trifluoroacetate] | 4.00 to 6.00 | >99 | 0.1 to 0.5 | 0.1 to 0.5 | 6.30 to 7.00 | ≥ 7.00 | ≥ 7.00 | ≥ 7.00 |
| C=CC(=O)Nc1cc(-c2c(-c3ccnc(N4CCOCC4)c3)[nH]c3ncccc23)ccc1C [Example 80, N-(2-methyl-5-(2-(2-morpholinopyridin-4-yl)-1H-pyrrolo[2,3-b]pyridin-3-yl)phenyl)acrylamide] | 4.00 to 6.00 | >99 | 1 to 10 | 1 to 10 | 6.30 to 7.00 | ≥ 7.00 | 6.30 to 7.00 | 6.00 to 6.30 |

Now from value to compound:

| pIC50 (A431) | Stability in presence of mouse liver microsomes without cofactor NADPH [% remaining after 50 min] [1] [% remaining after 50 min] | GI50 [2] [µM] | GI50 [3] [µM] | pIC50 (H1975) | pIC50 (EGFR T790ML858R) | pIC50 (EGFR wt) | pIC50 (HER2 INS YVMA) | Compound |
| --- | --- | --- | --- | --- | --- | --- | --- | --- |
| 4.00 to 6.00 | >99 | 0.1 to 0.5 | 0.1 to 0.5 | 6.30 to 7.00 | ≥ 7.00 | ≥ 7.00 | ≥ 7.00 | C=CC(=O)Nc1cc(-c2c(-c3cccc(CN(C)C)c3)[nH]c3ncc(C(=O)OC(C)C)cc23)ccc1C [Example 187, isopropyl 3-(3-acrylamido-4-methylphenyl)-2-(3-((dimethylamino)methyl)phenyl)-1H-pyrrolo[2,3-b]pyridine-5-carboxylate] |
| 6.00 to 6.30 | >99 | 0.1 to 0.5 | 0.5 to 1 | 6.30 to 7.00 | ≥ 7.00 | ≥ 7.00 | ≥ 7.00 | C=CC(=O)N1CCc2ccc(-c3c(-c4ccc(OCCCN(C)C)cc4)[nH]c4nccc(Cl)c34)cc21 [Example 71, 1-(6-(4-chloro-2-(4-(3-(dimethylamino)propoxy)phenyl)-1H-pyrrolo[2,3-b]pyridin-3-yl)indolin-1-yl)prop-2-en-1-one] |
| 6.00 to 6.30 | 90 | 0.5 to 1 | 0.1 to 0.5 | ≥ 7.00 | ≥ 7.00 | ≥ 7.00 | ≥ 7.00 | C=CC(=O)Nc1cc(-c2c(-c3ccc(N4CCN(C(C)=O)CC4)cc3)[nH]c3nccc(OC)c23)ccc1C [Example 74, N-(5-(2-(4-(4-acetylpiperazin-1-yl)phenyl)-4-methoxy-1H-pyrrolo[2,3-b]pyridin-3-yl)-2-methylphenyl)acrylamide] |
